What was measured:
[1] = tested on: cardiomyopathic Syrian hamsters (Bio 14.6 strain); assay: Heart failure and myocardiopathy test in cardiomyopathic hamsters, oral dosing for 87 days; type: in vivo, hamster; conditions: for AST (GOT) level / LDH level: day 30, 60mg/kg/day
Method: (§1) Male aged-matched normal healthy golden hamsters (F1B strain) were used as control animals. These hamsters were purchased from Biobreeders Inc. Throughout the test period, the animals were housed in stainless steel cage in a temperature (23 ± 1C° )controlled room where a daily light-dark cycle was maintained artificially at 12 hours intervals. The animals were fed with commercially available pellet (CE-2, CLEA Japan, Inc.) and provided adde libitum with feed pellets and water. Incidentally, after they were purchased, the animals were acclimated to the above environment at least one week before subjected to experiments.
The test compound was suspended in a 0.5% sodium carboxymethyl cellulose (CMC-Na) solution. This dosing solution was orally administered for 87 days at dosages of 30mg/kg/day and 60mg/kg/day and a dose volume of 20ml/kg.
Captopril was used as a control compound. The compound was similarly suspended in a 0.5% CMC-Na solution and was orally administered for 87 days at a dosage of 60mg/kg/day and a dose volume of 20ml/kg.
A group of animals administered with a 0.5% CMC-Na solution served as a vehicle control group. The solution was administered once daily from Monday through Friday but not on Saturdays and Sundays.
(§2) Body weight was recorded on every Monday and Thursday after the administration of the test compound. […]
Blood samples were collected before administration of the test compound, and 45 and 88 days after administration. The blood samples were collected from venous plexus of eyegrounds under anesthesia by ether. Blood plasma was separated from the samples and plasma norepinephrine (NE) levels were measured using a catecholamine assay system.
Myocardial tissue preparations were prepared 88 days after the administration was started. The animals were sacrificed by exsanguination under anesthesia by ether. Chests were opened and hearts extirpated. Weight of the hearts was measured and the hearts were fixed in a 10% buffered neutral formaldehyde solution. Bases of the hearts were sliced to a 3mm thickness and formed into paraffin slices with respect to the side of the base using ordinary methods. The slices were stained with kossa, hematoxylin/eosin (H&E) and H&E/aniline blue stains. The preparations of the hearts so prepared were measured in area for regions of cardiac fibrosis, mineral deposition, myocardial necrosis, and macrophage infiltration, using an image analyzing system (Mac SCOPE Ver.2.1, Mitsuya Shoji).
(§3) Measurements were expressed in mean ± S.E., and tests for significant differences between the respective groups were performed using Dunnett's multiple comparison test.

[2] = tested on: normal healthy golden hamsters (F1B strain); conditions: hamster, in vivo
Method: as §1, with “Male cardiomyopathic Syrian hamsters (Bio 14.6 strain) aged 7 weeks were used. Male” for “Male”, “Incidentally, after they were purchased, the animals were acclimated to the above environment at least one week before subjected to experiments.” left out
as §2
Blood samples were collected before administration of the test compound, and 45 and 88 days after administration. […] Blood plasma was separated from the samples and plasma norepinephrine (NE) levels were measured using a catecholamine assay system.
Myocardial tissue preparations were prepared 88 days after the administration was started. […] Weight of the hearts was measured and the hearts were fixed in a 10% buffered neutral formaldehyde solution. […] The preparations of the hearts so prepared were measured in area for regions of cardiac fibrosis, mineral deposition, myocardial necrosis, and macrophage infiltration, using an image analyzing system (Mac SCOPE Ver.2.1, Mitsuya Shoji). […]

[3] = tested on: cardiomyopathic Syrian hamsters (Bio 14.6 strain); assay: Heart failure and myocardiopathy test in cardiomyopathic hamsters, oral dosing for 87 days; type: in vivo, hamster; conditions: Bio 14.6 hamsters, 30, 60 and 88 days, all tests other than AST (GOT) and LDH on day 30 at 60mg/kg/day
[4] = tested on: myocardial adenosine level; assay: Effects on myocardial adenosine level in extirpated, Langendorff-perfused rat hearts (HPLC); conditions: 10^-5 M, 15-minute perfusion, compared to vehicle control group (0.04% DMSO)
Method: Male Sprange-Dawley rats aged 7 to 8 weeks were used. Hearts were extirpated under anesthesia by pentobarbital (50mg/kg, intra-abdominally injected) and were suspended in a Langendorff's apparatus.
The hearts were then frozen with liquid nitrogen. 10 equivalents of 0.6N perchloric acid were added to the frozen tissue and the tissue was homogenized and neutralized by 1N KOH and was then centrifuged. After centrifugation, the level of adenosine in the supernatant was measured by HPLC.
Propranol was used as a control compound for the test and 0.04% DMSO solution was used as a vehicle control.
as §3

male ICR mice = assay: Toxicity test, subcutaneous administration to mice, observed for one week; type: in vivo
[5] = Toxicity test, oral administration to fasted mice, observed for two weeks, LD50 by the Richfield-Wilcockson method; type: in vivo; conditions: mouse, in vivo, mice, Richfield-Wilcockson method
Method: (§4) LD50 was determined using the Richfield-Wilcockson method.

mice = assay: as above; type: in vivo; conditions: 0.025N hydrochloric acid-saline solution, after 16-hour fasting, observed for two weeks
Method: as §4

[6] = Bio 14.6 hamsters, 88 days after administration, 60mg/kg/day, compared to vehicle control group
[7] = Bio 14.6 hamsters, day 88, 60mg/kg/day oral
[8] = Bio 14.6 hamsters, day 88, 60mg/kg/day, image analysis
[9] = Bio 14.6 hamsters, day 88, 30mg/kg/day, image analysis

C[C@H](CS)C(=O)N1CCC[C@H]1C(=O)O [captopril, reference compound]
plasma NE level [1, 6]: The same results were obtained | AST (GOT) level ([1]; Bio 14.6 hamsters): tendency of decrease | LDH level ([1]; Bio 14.6 hamsters): tendency of decrease | relative heart weight [1, 7]: The same results were obtained | area of cardiac lesions [1, 8]: significant decrease in area | area of regions of fibrosis [1, 8]: significant decrease in area | area of regions of macrophage infiltration [1, 8]: significant decrease in area | area of regions of myocardial necrosis [1, 8]: significant decrease in area

COC(=O)C12C(O)C(C(=O)Cc3ccccn3)=NN1C(c1ccccc1)C=CC2c1ccccc1 (centres unmarked) [compound No.1, 2,5-diphenyl-7-hydroxy-6-methoxycarbonyl-8-(2-pyridyl)acetyl-1,9-diazabicyclo[4.3.0]-nona-3,8-dien]
clinical chemistry tests [2]: no effect | clinical chemistry tests (all the other tests) [3]: no effect | myocardial adenosine level [4]: increased three-fold | clinical observations related to treatment (male ICR mice; mouse, in vivo, sc): no clinical observations | mortality (male ICR mice; subcutaneous, 10ml/kg of a 10% aqueous polyethylene glycol 400 solution, observed for one week): no mortality | plasma NE level ([1]; 45 days after administration, each dosage, compared to vehicle control groups, strain not specified in the sentence (Fig.4)): did not have significant effects | plasma NE level [1, 6]: significantly lower level | plasma NE level ([1]; Bio 14.6 hamsters, 88 days after administration, across 30 and 60mg/kg/day): decrease in a dose-dependent manner | AST (GOT) level ([1]; Bio 14.6 hamsters): tendency of decrease | LDH level ([1]; Bio 14.6 hamsters): tendency of decrease | relative heart weight ([1]; Bio 14.6 hamsters, day 88, 30mg/kg/day oral): significant suppression of increase | area of cardiac legions (sum of the areas of necrosis, macrophage infiltration and fibrosis) [1, 9]: significant decrease in area | area of regions of fibrosis [1, 9]: significant decrease in area | area of regions of macrophage infiltration [1, 9]: significant decrease in area | area of regions of myocardial necrosis [1, 9]: significant decrease in area | relative heart weight [1, 7]: significant suppression of increase | area of regions of macrophage infiltration [1, 8]: significant decrease in area | area of regions of myocardial necrosis [1, 8]: significant decrease in area | relative liver weight ([1]; Bio 14.6 hamsters, day 88, oral): did not have effects | changes in body weight ([1]; Bio 14.6 hamsters, each dosage (30mg/kg/day and 60mg/kg/day), oral): did not affect | LD50 at 336 h [5]: > 100 mg/kg | clinical observations (mice): no clinical observations | mortality (mice): no mortality

CC(C)NCC(O)COc1cccc2ccccc12 (centres unmarked) [propranol, reference compound]
myocardial adenosine level [4]: no significant difference
